Assay results: patent publication US6348461B1, “6,7-asymmetrically disubstituted quinoxalinecarboxylic acid derivatives, addition salts thereof, and processes for the preparation of both” (Kyorin Pharmaceutical Co., Ltd., priority 1997, dated 2002)
Counter-ions that a name gives are not always drawn.

Structure (SMILES) | melting point
O=C(Nc1ccc(C(=O)O)cc1)OCc1cn(-c2cc3nc(C(=O)O)c(=O)[nH]c3cc2[N+](=O)[O-])ccc1=O [Example 307, 7-(3-((N-(4-Carboxyphenyl)carbamoyloxy)methyl)-4-pyridone-1-yl)-3,4-dihydro-6-nitro-3-oxoquinoxaline-2-carboxylic Acid] | 231 to 233 °C (dec.)
O=C(O)c1nc2cc(-n3ccnc3)c(C(F)(F)F)cc2[nH]c1=O [Example 168, 3,4-Dihydro-7-imidazolyl-3-oxo-6-trifluoromethylquinoxaline-2-carboxylic Acid] | 232 to 234 °C (dec.)
O=C(Cc1ccc(Br)cc1)Nc1cn(-c2cc3nc(C(=O)O)c(=O)[nH]c3cc2[N+](=O)[O-])ccc1=O [Example 136, 7-(3-((4-Bromobenzyl)carbonylamino)-4-pyridone-1-yl)-3,4-dihydro-6-nitro-3-oxoquinoxaline-2-carboxylic Acid] | 240 to 242 °C (dec.)
O=C(O)c1nc2cc(-n3ccc(=O)cc3)c(C(F)(F)F)cc2[nH]c1=O [Example 169, 3,4-Dihydro-3-oxo-7-(4-pyridone-1-yl)-6-trifluoro-methylquinoxaline-2-carboxylic Acid] | 300 °C
O=C(Nc1ccccc1)Nc1cn(-c2cc3nc(C(=O)O)c(=O)[nH]c3cc2[N+](=O)[O-])ccc1=O [Example 129, 3,4-Dihydro-6-nitro-3-oxo-7-(3-(phenylaminocarbonylamino)-4-pyridone-1-yl)quinoxaline-2-carboxylic Acid] | 282 to 284 °C (dec.)
Nc1cc2[nH]c(=O)c(C(=O)O)nc2cc1F [Example 72, 6-Amino-3,4-dihydro-7-fluoro-3-oxoquinoxaline-2-carboxylic Acid] | > 300 °C
O=C(O)c1nc2cc(C(F)(F)F)c([N+](=O)[O-])cc2[nH]c1=O [Example 163, 3,4-Dihydro-6-nitro-3-oxo-7-trifluoromethylquinoxaline-2-carboxylic Acid] | 213 to 215 °C (dec.)
O=C(Nc1ccccc1)OCc1cn(-c2cc3nc(C(=O)O)c(=O)[nH]c3cc2C(F)(F)F)cn1 [Example 235, 3,4-Dihydro-3-oxo-7-((4-(N-phenylcarbamoyloxy)methyl)imidazole-1-yl)-6-trifluoromethylquinoxaline-2-carboxylic Acid] | 193 to 195 °C (dec.)
O=C(Nc1ccc(Br)cc1)Nc1cn(-c2cc3nc(C(=O)O)c(=O)[nH]c3cc2[N+](=O)[O-])ccc1=O [Example 128, 7-(3-((4-Bromophenyl)aminocarbonylamino)-4-pyridone-1-yl)-3,4-dihydro-6-nitro-3-oxoquinoxaline-2-carboxylic Acid] | 252 to 254 °C (dec.)
O=C(c1nc2cc(N3CCOCC3)c([N+](=O)[O-])cc2[nH]c1=O)N1CCOCC1 [Example 138, 3,4-Dihydro-7-morpholino-6-nitro-3-oxoquinoxaline-2-carboxylic Morpholineamide] | 298 to 299 °C
Nc1cc2nc(C(=O)O)c(=O)[nH]c2cc1C(F)(F)F [Example 164, 7-Amino-3,4-dihydro-3-oxo-6-trifluoromethylquinoxaline-2-carboxylic Acid] | 218 to 220 °C (dec.)
CN(C)Cc1cc2nc(C(=O)O)c(=O)[nH]c2cc1[N+](=O)[O-] [Example 67, 3,4-Dihydro-7-dimethylaminomethyl-6-nitro-3-oxoquinoxaline-2-carboxylic Acid] | > 300 °C
O=C(O)Cc1cn(-c2cc3nc(C(=O)O)c(=O)[nH]c3cc2[N+](=O)[O-])cn1 [Example 303, 7-(4-(Carboxymethyl)imidazolyl)-3,4-dihydro-6-nitro-3-oxoquinoxaline-2-carboxylic Acid] | > 300 °C
O=C(Nc1cccc(C(=O)O)c1)OCc1cn(-c2cc3nc(C(=O)O)c(=O)[nH]c3cc2[N+](=O)[O-])cn1 [Example 116, 7-(4-((N-(3-Carboxyphenyl)carbamoyloxy)methyl)imidazolyl)-3,4-dihydro-6-nitro-3-oxoquinoxaline-2-carboxylic Acid] | 272 to 274 °C (dec.)
CCOC(=O)c1ccc(NC(=O)OCc2cn(-c3cc4nc(C(=O)O)c(=O)[nH]c4cc3[N+](=O)[O-])cn2)cc1 [Example 278, 3,4-Dihydro-7-(4-((N-(4-ethoxycarbonylphenyl)carbamoyloxy)methyl)imidazolyl)-6-nitro-3-oxoquinoxaline-2-carboxylic Acid] | 207 to 209 °C (dec.)
O=C(O)c1nc2cc(N3CCN(Cc4ccccc4)CC3)c([N+](=O)[O-])cc2[nH]c1=O [Example 60, 7-(4-Benzylpiperazine-1-yl)-3,4-dihydro-6-nitro-3-oxoquinoxaline-2-carboxylic Acid] | 278 to 280 °C
O=C(O)c1nc2cc(N3CCN(c4ccc(F)cc4)CC3)c([N+](=O)[O-])cc2[nH]c1=O [Example 54, 3,4-Dihydro-7-(4-(4-fluorophenyl)piperazine-1-yl)-6-nitro-3-oxoquinoxaline-2-carboxylic Acid] | 235.5 to 237.5 °C

Structure (SMILES) | melting point
CCOC(=O)c1ccc(NC(=O)OCc2cn(-c3cc4nc(C(=O)O)c(=O)[nH]c4cc3[N+](=O)[O-])ccc2=O)cc1 [Example 306, 7-(3-((N-(4-Ethoxycarbonylphenyl)carbamoyloxy)methyl)-4-pyridone-1-yl)-3,4-dihydro-6-nitro-3-oxoquinoxaline-2-carboxylic Acid] | 201 to 203 °C (dec.)
NC(=O)c1nc2cc(-n3ccc(=O)cc3)c([N+](=O)[O-])cc2[nH]c1=O [Example 70, 3,4-Dihydro-6-nitro-3-oxo-7-(4-pyridone-1-yl)quinoxaline-2-carboxamide] | > 300 °C
O=C(NCc1ccn(-c2cc3nc(C(=O)O)c(=O)[nH]c3cc2C(F)(F)F)c1)Nc1ccc(C(=O)O)cc1F [Example 80, 7-(3-(((4-Carboxy-2-fluorophenyl)aminocarbonylamino)-methyl)pyrrole-1-yl)-3,4-dihydro-3-oxo-6-trifluoromethylquinoxaline-2-carboxylic Acid] | 249 to 251 °C (dec.)
O=C(NCc1cn(-c2cc3nc(C(=O)O)c(=O)[nH]c3cc2[N+](=O)[O-])cn1)Nc1ccccc1F [Example 118, 3,4-Dihydro-7-(4-(((2-fluorophenyl)aminocarbonylamino)methyl)imidazolyl)-6-nitro-3-oxoquinoxaline-2-carboxylic Acid] | 300 °C
O=C(NCc1ccn(-c2cc3nc(C(=O)O)c(=O)[nH]c3cc2C(F)(F)F)c1)Nc1ccccc1 [Example 188, 3,4-Dihydro-3-oxo-7-(3-((phenylaminocarbonylamino)methyl)pyrrole-1-yl)-6-trifluoromethylquinoxaline-2-carboxylic Acid] | > 300 °C
O=C(NCc1cn(-c2cc3nc(C(=O)O)c(=O)[nH]c3cc2[N+](=O)[O-])cn1)Nc1ccc(C(=O)O)cc1 (as salt: salt) [Example 119, 7-(4-(((4-Carboxyphenyl)aminocarbonylamino)methyl)imidazolyl)-3,4-dihydro-6-nitro-3-oxoquinoxaline-2-carboxylic Acid] | 300 °C (dec.)
O=C(NCc1ccn(-c2cc3nc(C(=O)O)c(=O)[nH]c3cc2C(F)(F)F)c1)Nc1ccc(C(=O)O)cc1 [Example 79, 7-(3-(((4-Carboxyphenyl)aminocarbonylamino)-methyl)pyrrole-1-yl)-3,4-dihydro-3-oxo-6-trifluoromethylquinoxaline-2-carboxylic Acid] | 234 to 236 °C (dec.)
O=C(O)c1nc2cc(N3CCC(O)CC3)c([N+](=O)[O-])cc2[nH]c1=O [Example 61, 3,4-Dihydro-7-(4-hydroxypiperidine-1-yl)-6-nitro-3-oxoqinoxaline-2-carboxylic Acid] | 253 to 255 °C
O=C(NCc1cn(-c2cc3nc(C(=O)O)c(=O)[nH]c3cc2C(F)(F)F)cn1)Nc1ccc(C(=O)O)cc1 (as salt: salt) [Example 207, 7-(4-(((4-Carboxyphenyl)aminocarbonylamino)methyl)imidazole-1-yl)-3,4-dihydro-3-oxo-6-trifluoromethylquinoxaline-2-carboxylic Acid] | 255 °C (dec.)
O=C(NCc1ccn(-c2cc3nc(C(=O)O)c(=O)[nH]c3cc2C(F)(F)F)c1)Nc1ccc(Br)cc1 [Example 185, 7-(3-(((4-Bromophenyl)aminocarbonylamino)methyl)pyrrole-1-yl)-3,4-dihydro-3-oxo-6-trifluoromethylquinoxaline-2-carboxylic Acid] | 196 to 198 °C (dec.)
Nc1cc2nc(C(=O)O)c(=O)[nH]c2cc1[N+](=O)[O-] [Example 157, 7-Amino-3,4-dihydro-6-nitro-3-oxoquinoxaline-2-carboxylic Acid] | 300 °C
O=C(Nc1ccc(Br)cc1)OCc1cn(-c2cc3nc(C(=O)O)c(=O)[nH]c3cc2[N+](=O)[O-])cn1 [Example 86, 7-(4-((N-(4-Bromophenyl)carbamoyloxy)methyl)imidazolyl)-3,4-dihydro-6-nitro-3-oxoquinoxaline-2-carboxylic Acid] | 270 to 272 °C (dec.)
O=C(O)c1nc2cc(Oc3cccc([N+](=O)[O-])c3)c([N+](=O)[O-])cc2[nH]c1=O | 198 to 200 °C (dec.)
Cn1c(=O)c(C(=O)O)nc2cc(F)c([N+](=O)[O-])cc21 [Example 162, 3,4-Dihydro-7-fluoro-4-methyl-6-nitro-3-oxoquinoxaline-2-carboxylic Acid] | 173 to 175 °C
O=C(Nc1cccc(C(=O)O)c1)OCc1cn(-c2cc3nc(C(=O)O)c(=O)[nH]c3cc2[N+](=O)[O-])ccc1=O [Example 125, 7-(3-((N-(3-Carboxyphenyl)carbamoyloxy)methyl)-4-pyridone-1-yl)-3,4-dihydro-6-nitro-3-oxoquinoxaline-2-carboxylic Acid] | 250 to 252 °C (dec.)
Nc1cn(-c2cc3nc(C(=O)O)c(=O)[nH]c3cc2[N+](=O)[O-])ccc1=O [Example 142, 7-(3-Amino-4-pyridone-1-yl)-3,4-dihydro-6-nitro-3-oxoquinoxaline-2-carboxylic Acid] | > 300 °C
O=C(NCc1ccn(-c2cc3nc(C(=O)O)c(=O)[nH]c3cc2C(F)(F)F)c1)Nc1cccc(C(=O)O)c1 [Example 187, 7-(3-(((3-Carboxyphenyl)aminocarbonylamino)methyl)pyrrole-1-yl)-3,4-dihydro-3-oxo-6-trifluoromethylquinoxaline-2-carboxylic Acid] | 300 °C
